Experimental data: a melting point compilation (Tetko et al.; mined from patent text by program, amines drawn as free bases though some values may be those of a salt)

`COc1cc(CSC(=S)N(C)C)nc(N)n1` showed a melting point of 118 to 120 °C.
Work on `Cc1ccc(S(=O)(=O)Cc2cccc(C(F)(F)F)c2)cc1` yielded a melting point of 139 to 140 °C.
`O=C1C(=C(O)Cc2ccccc2)SC(=S)N1c1ccc(Cl)cc1` showed a melting point of 134 to 137 °C.
For `CC(C)(CO)c1ccc(C(=O)Nc2cn3cc(C(F)(F)F)ccc3n2)cc1`, the melting point was 227 to 229 °C.
For `COC(=O)C=CC(=O)OC(=C1C(=O)N(C(N)=O)c2cc(Cl)c(F)cc21)c1cccs1`, the melting point was 184 to 186 °C.
Work on `COc1cc(C2(OC)CCOCC2)ccc1OCc1ccc2c(ccc(=O)n2C)c1` yielded a melting point of 172 to 173 °C.
`C#CCN(C(=O)n1oc(C)c(Cl)c1=O)c1ccc(C)cc1` showed a melting point of 79 °C.
`CCCCCCc1c(Br)c(-c2ccccc2)n(-c2ccc(C)cc2)c1-c1ccccc1` gave a melting point of 86 to 89 °C.
`COc1ccc(-c2cnn3c(N)c(-c4cccc(Cl)c4)c(CF)nc23)cc1OC` showed a melting point of 228 to 230 °C.
`Cn1cc(-c2cncc(OC3SCC(O)C(O)C3O)c2)cn1` (configuration not stated) showed a melting point of 216 °C.
Compound `CC(C)C(=O)NC(c1ccc(C=NO)cc1)C(F)(F)F` (configuration not stated) has a melting point of 169 to 171 °C.
`CC1CN(C(=O)CO)C(C)(C)O1` (configuration not stated) gave a melting point of 50 to 53 °C.
`N#Cc1ccc(-c2cn(-c3ccc(C#N)cc3)c(C(O)c3ccccc3)n2)cc1` (configuration not stated) showed a melting point of 217 to 222 °C.
`COc1cc2ncc(C#N)c(Nc3cccc(C(=O)O)c3C)c2cc1OC` gave a melting point of 242 to 245 °C.
`CS(=O)(=O)c1ccc(N2CCC(N3CCCC3)CC2)cc1` gave a melting point of 166 to 170 °C.
In the case of `CCOC(=O)C(=Cc1ccc(-c2cccc(NC)c2)cc1)OCC`, the melting point is reported as 52 °C.
Compound `O=C(O)c1cccc([N+](=O)[O-])c1SCc1ccccc1` has a melting point of 152 to 153 °C.
In the case of `CCCN(CC)C(C)CN1CCc2c(c(=O)oc3cc(OC)ccc23)C1` (configuration not stated), the melting point is reported as 100 to 101 °C.
In the case of `COc1ccc2nc(-c3cc(C(F)(F)F)nn3-c3ccc(S(N)(=O)=O)cc3)sc2c1`, the melting point is reported as 236 to 237 °C.
Compound `FC(F)(F)c1ccc(-c2ccc(N3CCCN(c4ccc(-c5ccc(C(F)(F)F)cc5)cn4)CC3)nc2)cc1` has a melting point of 236 to 238 °C.
In the case of `Nc1c(Cl)cc(C(F)(F)F)c(Cl)c1Cl`, the melting point is reported as 37 to 39 °C.
Work on `O=c1c2ccccc2[nH]c(=S)n1CCCO` yielded a melting point of 174 to 176 °C.
With `Cn1nc(-c2c(Cl)cc(C(F)(F)F)cc2Cl)c([N+](=O)[O-])c1N` the melting point was 107 to 108 °C.
In the case of `COC(=O)c1ccc(C#CCO)cc1`, the melting point is reported as 81 to 82 °C.
With `CC(Oc1ncn(-c2cccc(F)c2)n1)C(=O)O` (configuration not stated) the melting point was 177 to 179 °C.
In the case of `Cc1cncc2ncc(-c3ccccc3)cc12`, the melting point is reported as 135 to 138 °C.
With `CC12CCC(=O)C=C1CCC1C2CCC2(C)C1CC(O)C2NCC(=O)C(F)(F)F` (configuration not stated) the melting point was 217 to 220 °C.
For `CC(C)(O)Cn1cnc2c(N)nc3cc(Br)ccc3c21`, the melting point was greater than 250 °C.
Compound `Clc1ccc(Oc2cc(Br)c(Cl)cc2OCc2ccccc2)c(Cl)c1` has a melting point of 86 to 88 °C.
`C1=C(c2c[nH]c3ccccc23)CCN(CC2COc3ccc4nocc4c3O2)C1` (configuration not stated) gave a melting point of 110 °C.
`O=C(O)CCc1cn(Cc2ccc(OCc3csc(-c4cccnc4)n3)cc2)cc1-c1ccccc1` gave a melting point of 118 to 119 °C.
Work on `O=C(O)c1cccc(-n2c(-c3ccc(Br)cc3)cc3c2CCCC3)c1` yielded a melting point of 242 to 244 °C.
For `CCc1cc(CC)nc(S)n1`, the melting point was 82 to 84.5 °C.
With `c1ccc(Cn2c(NC3CCN(C4CCCCC4)CC3)nc3ccccc32)cc1` the melting point was 143 °C.
Work on `CC(=O)Oc1ccccc1-c1[nH]c2ccc(Cl)cc2c1-c1ccc(S(C)(=O)=O)cc1` yielded a melting point of 238 to 240 °C.
For `O=S1(=O)CCON=C1c1nc2ccccc2s1`, the melting point was 226 to 227 °C.
`COc1ccc2sc(-c3ccc(OCCN4CCCC4)cc3)cc2c1` gave a melting point of 123 to 126 °C.
For `CCCn1c(N)cc(=O)n(CC2CCCCC2)c1=O`, the melting point was 121 to 122 °C.
Compound `N#Cc1nn(-c2c(Cl)cc(C(F)(F)F)cc2Cl)c(N)c1-c1ccc2c(c1)OCO2` has a melting point of 222 °C.
`O=C1NC(=O)N(CCc2ccccc2)C1O` (configuration not stated) gave a melting point of 168 to 169 °C.
`Cc1nc(C)c(C(=O)c2ccoc2)o1` gave a melting point of 73.5 to 74.5 °C.
Compound `Nc1c(F)cc(Cn2ccnc2S)cc1F` has a melting point of 181 to 184 °C.
For `CCOc1c(C#N)sc(NC(C)=O)c1C#N`, the melting point was 267 to 268 °C.
In the case of `CN1CCC(c2c[nH]c3ccc(C(=O)c4ccc(N(C)C)cc4)cc23)CC1`, the melting point is reported as 103 to 104 °C.
For `CCOC(=O)N1C(c2ccccc2)OC(=O)C1c1ccccc1` (configuration not stated), the melting point was 197 to 199 °C.
In the case of `CCCCN(O)C1CC(C)(C)N(C(C)=O)C(C)(C)C1`, the melting point is reported as 52 to 54 °C.
Compound `CN(CCC=C1c2ccccc2C=Cc2ccccc21)CCC(=O)O` has a melting point of 119 to 120 °C.
For `O=C(O)Cc1nn(Cc2ccc(Br)cc2F)c(=O)c2c(F)cccc12`, the melting point was 173 to 175 °C.
`O=C1NC(c2ccccc2)(c2ccccc2)C(=O)N1COP(=O)(OCc1ccccc1)OCc1ccccc1` showed a melting point of 119 to 120 °C.
Work on `CCc1noc(-c2cn(-c3nccnn3)cn2)n1` yielded a melting point of 181 to 182 °C.
For `CCOc1c(C(N)=O)oc2c3ccccc3n(-c3ccccc3)c12`, the melting point was 187 to 188 °C.
`CC1(C)OC(=O)C(=C2NCCN2)C(=O)O1` showed a melting point of 181 to 182 °C.
Compound `CS(=O)(=O)c1ccccc1CNC(=O)[C@@H]1CCCN(c2cccc3c2C(=O)N(Cc2ccncc2)C3=O)C1` has a melting point of 101 to 102 °C.
With `CCOC(=O)c1c(SCc2ccc(OC)cc2)nc2c(F)c(F)c(F)cc2c1O` the melting point was 174 to 176 °C.
`CN(C)[C@H]1CC[C@H](Nc2ncc3ncnc(Nc4ccc(OCc5ccccc5)cc4)c3n2)CC1` gave a melting point of 155 °C.
For `COc1cc(CCl)cc(OC)c1OCc1nc(-c2ccccc2)oc1C`, the melting point was 118 to 119 °C.
`CCCCCC(CC(=O)Nc1cc(C(N)=O)ccc1C(C)(C)C)c1cc(F)c(OC)cc1OC` (configuration not stated) showed a melting point of 150 °C.
Work on `CS(=O)(=O)c1ccc(-c2nc(C(F)(F)F)nc(OS(=O)(=O)c3cccc4ccccc34)c2-c2ccccc2)cc1` yielded a melting point of 204 to 206 °C.
`Nc1ccn(C2OC(CO)C(O)C2O)c(=O)c1F` (configuration not stated) showed a melting point of 234 to 236 °C.
Compound `Cc1ccc(Nc2c([N+](=O)[O-])cc(C(=O)O)cc2S(N)(=O)=O)c(C)c1` has a melting point of 224 to 226 °C.
Work on `Cc1cccc2cc(N3CCN(CCO)CC3)[nH]c(=O)c12` yielded a melting point of 209 to 210 °C.
`CCn1nc(-c2ccccc2)c(C(C)=O)c([N+](=O)[O-])c1=O` gave a melting point of 226 to 227 °C.
`NS(=O)(=O)c1cscc1C(=O)Cl` showed a melting point of 236 to 238 °C.
Compound `O=C(O)c1cc(-c2ccc(Cl)cc2)nc(-c2ccc(Cl)c(Cl)c2)c1` has a melting point of 303 to 304 °C.
In the case of `NNC1=NC2CCCc3cccc(c32)N1` (configuration not stated), the melting point is reported as 191 to 193 °C.
Compound `Cc1nnc2n1-c1ccccc1C(c1ccc(Cl)cc1)=NN2Cc1ccc(NC=O)cc1` has a melting point of 215 to 216 °C.
Work on `Cc1cc(OCc2sc(-c3ccc(C(F)(F)F)cc3)nc2C)ccc1OCC(=O)O` yielded a melting point of 174 to 176 °C.
For `O=C(O)c1cccc(-c2nc(-c3ccc(F)cc3F)cs2)c1`, the melting point was 255 to 256 °C.
In the case of `O=C(CCC1=C(n2nc(-c3c(-c4ccccc4)nn4ccccc34)ccc2=O)CCCC1)OCc1ccccc1`, the melting point is reported as 111 to 113 °C.
`CC(=Cc1ccccc1Br)c1ccc2c(c1)C(C)(C)CCC2(C)C` showed a melting point of 116 to 117 °C.
Work on `Cc1cc(S(N)(=O)=O)ccc1NC(=O)Cc1ccc(Oc2cc(Cl)cc(C#N)c2)c(Br)c1` yielded a melting point of 215 to 216 °C.
In the case of `CC(O)C#Cc1cc(Cl)cc2nc(-c3ccccc3Cl)oc12` (configuration not stated), the melting point is reported as 129 to 131 °C.
Work on `CC(C)c1ccc(S(=O)(=O)n2c(C(O)c3cccc(C(=O)O)c3)cc3cc(Cl)ccc32)cc1` (configuration not stated) yielded a melting point of 97 °C.
`CO/N=C(\C)[C@H]1CC[C@H]2[C@@H]3CC=C4C[C@@H](O)CC[C@]4(C)[C@H]3CC[C@]12C` gave a melting point of 167 to 168 °C.
In the case of `Clc1ccc(-c2[nH]nc(N3CCN(C4CC4)CC3)c2-c2ccncc2)cc1`, the melting point is reported as 264 to 265 °C.
Work on `CC(C)(C)NC(=O)Nc1ccc2oc3c(c2c1)CCCC3` yielded a melting point of 310 to 312 °C.
`CCCOc1cc(-n2c(=O)cc(C(F)(F)F)n(C)c2=O)c(F)cc1Br` showed a melting point of 119 °C.
In the case of `O=C(CCl)Nc1ccc2c(c1NC(=O)c1ccc(Cl)cc1)C(=O)c1ccccc1C2=O`, the melting point is reported as 224 to 225 °C.
`Cc1c(CO)ncc(Br)c1N1CCCCC1` gave a melting point of 80 to 81 °C.
Compound `N#Cc1ccccc1-c1ccc2[nH]ncc2c1` has a melting point of 163 to 170 °C.
With `Cc1cc(CO)c(C)cc1O` the melting point was 164 to 165 °C.
`COc1cc2c(cn1)C(=O)N(C(C)C)C2=O` showed a melting point of 150 to 152 °C.
With `O=C(Nc1ccc(-n2cccn2)c(F)c1)OCc1ccccc1` the melting point was 82 to 83 °C.
With `O=S1(=O)NC(C2CCCC2)Nc2ccc(S(=O)(=O)N3CCCCC3)cc21` (configuration not stated) the melting point was 258 to 260 °C.
Work on `CN(CCCCCCCNC(=NCCCOc1cccc(CN2CCCCC2)c1)NC#N)CCN(Cc1ccc(F)cc1)c1ccccn1` yielded a melting point of 96 to 98 °C.
`COc1ccc(NC(C)c2ccccc2)cc1` (configuration not stated) showed a melting point of 64 °C.
For `COc1ccc(Sc2ccc3c(c2)CCC2N(C)C(=O)CCC32C)cc1` (single isomer, unassigned; (+)), the melting point was 150 to 151 °C.
Compound `O=c1[nH]c2cc(C(F)(F)F)c([N+](=O)[O-])c(Cl)c2[nH]c1=O` has a melting point of 343 to 347 °C.
`CC1(C)SCN(CCCCN2CCN(c3nc4ccccc4s3)CC2)C1=O` showed a melting point of 99.5 to 100 °C.
For `CCNc1nc2ccc(CCc3ccc(CN4CCCCC4)o3)cc2o1`, the melting point was 98 to 100 °C.
With `COc1ccc2ncc(CO)c(OC(C)C)c2c1` the melting point was 66 to 68 °C.
With `Cc1ccccc1C(=O)Nc1c(NC(=O)CCl)ccc2c1C(=O)c1ccccc1C2=O` the melting point was 179 to 180 °C.
In the case of `O=c1[nH]c2cc(Cl)cc(OCCNCc3ccsc3)c2[nH]1`, the melting point is reported as greater than 250 °C.
For `Cc1cccc(C)c1OCC1CN=C(N)O1` (configuration not stated), the melting point was 114 °C.
`Cn1ncc2c(=O)n3c(nc21)SC(c1ccccc1)C3c1ccccc1` (configuration not stated) showed a melting point of 159 °C.
`COc1ccc(-c2nc(CNC(C)(C)C)nc3cc(OC)c(OC)cc23)cc1OC` showed a melting point of 120 to 122 °C.
With `Cc1cc(C(=O)O)ccc1N1CCOCC1` the melting point was 220 to 221 °C.
For `COC1(c2cccc(Sc3ccc4c(ccc(=O)n4CC(F)(F)F)c3)c2)CCOCC1`, the melting point was 138 to 140 °C.
Compound `CC(=O)Nc1nc(CN2CCN(C(c3ccccc3)c3ccccc3)CC2)c(Cl)s1` has a melting point of 227 to 230 °C.
In the case of `CC(=O)NCCCCCC1CCSS1` (configuration not stated), the melting point is reported as 28 to 33 °C.
`Cc1c(-c2ccccc2)oc2c(CNC(=O)CCl)cccc2c1=O` gave a melting point of 152 to 155 °C.
For `Cc1noc(-c2ccc(F)cc2)c1-c1ccc(S(N)(=O)=O)cc1`, the melting point was 174 to 175 °C.
